Source: US20250195521A1 (Revolution Medicines, Inc., priority 2020, published 2025)
Where “and” joins values, the source holds several entries; their conditions need not be identical. Equal values may be shown once.

Columns and labels:
[1] = target: NRAS G12C (Homo sapiens (Human), UniProt P01111+P62937, G12C); experiment: Ras-Raf disruption/FRET/MOA assay (BRAF RBD, Cyclophilin A); assay type: biochemical; details: read-out: NRAS G12C FRET data IC50
In short: (§1)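 First, 25 μM Cyclophilin A, 12.5 nM His6-Ras-GMPPNP and 50 nM GST-BRAF RBD are mixed with diluted compound at pH 7.3. Next, 3 h at 25° C. Then 10 nM anti-His Eu-W1024 plus 50 nM anti-GST allophycocyanin for 1.5 h before TR-FRET reading.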

[2] = target: KRAS Q61H (Homo sapiens (Human), UniProt P01116+P62937, Q61H); experiment: as above; assay type: biochemical
Sequence of KRAS Q61H (P01116 other isoform, or with tags, fused parts or gaps Q61H): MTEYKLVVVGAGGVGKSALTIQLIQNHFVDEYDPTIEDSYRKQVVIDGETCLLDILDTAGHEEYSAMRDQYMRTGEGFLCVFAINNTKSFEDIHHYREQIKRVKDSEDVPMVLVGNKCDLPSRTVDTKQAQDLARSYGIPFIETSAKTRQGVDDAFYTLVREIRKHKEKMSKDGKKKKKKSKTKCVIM
Sequence of KRAS Q61H (P62937 whole entry): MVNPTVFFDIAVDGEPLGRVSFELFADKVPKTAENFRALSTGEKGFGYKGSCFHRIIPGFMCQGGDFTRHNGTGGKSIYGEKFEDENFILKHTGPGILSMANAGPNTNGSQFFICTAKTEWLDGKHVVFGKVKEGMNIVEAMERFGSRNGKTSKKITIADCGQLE
In short: (§2)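 His6-K-Ras-GMPPNP (12.5 nM), GST-BRAF RBD (50 nM) and tagless Cyclophilin A (25 μM) were combined in 25 mM HEPES pH 7.3 with 100 mM NaCl, 5 mM MgCl2, 0.1% BSA and 0.002% Tween20, with compound as a 10-point 3-fold series from 30 μM final, then incubated 3 h at 25° C.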

[3] = target: KRAS G13C (Homo sapiens (Human), UniProt P01116+P62937, G13C); experiment: as above; assay type: biochemical; details: read-out: KRAS G13C FRET IC50
Sequence of KRAS G13C (P01116 other isoform, or with tags, fused parts or gaps G13C): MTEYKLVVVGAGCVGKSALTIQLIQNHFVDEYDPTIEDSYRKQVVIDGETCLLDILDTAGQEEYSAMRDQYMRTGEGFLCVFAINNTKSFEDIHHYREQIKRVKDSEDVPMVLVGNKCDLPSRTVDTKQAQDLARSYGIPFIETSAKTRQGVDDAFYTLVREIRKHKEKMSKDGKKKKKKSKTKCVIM
Sequence of KRAS G13C (P62937 whole entry): as the sequence (P62937 whole entry) above
In short: as §2

[4] = target: KRAS G13D (Homo sapiens (Human), UniProt P01116+P62937, G13D); experiment: as above; assay type: biochemical; details: read-out: KRAS G13D FRET data IC50
Sequence of KRAS G13D (P01116 other isoform, or with tags, fused parts or gaps G13D): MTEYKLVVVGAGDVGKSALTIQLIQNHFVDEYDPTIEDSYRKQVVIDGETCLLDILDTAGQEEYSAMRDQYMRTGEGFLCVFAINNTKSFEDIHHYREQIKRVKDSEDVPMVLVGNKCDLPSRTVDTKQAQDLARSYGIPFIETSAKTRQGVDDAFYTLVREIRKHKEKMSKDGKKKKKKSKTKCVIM
Sequence of KRAS G13D (P62937 whole entry): as the sequence (P62937 whole entry) above
In short: as §2

[5] = target: NRAS WT (Homo sapiens (Human), UniProt P01111+P62937); experiment: as above; assay type: biochemical
Sequence of NRAS WT (P01111 whole entry): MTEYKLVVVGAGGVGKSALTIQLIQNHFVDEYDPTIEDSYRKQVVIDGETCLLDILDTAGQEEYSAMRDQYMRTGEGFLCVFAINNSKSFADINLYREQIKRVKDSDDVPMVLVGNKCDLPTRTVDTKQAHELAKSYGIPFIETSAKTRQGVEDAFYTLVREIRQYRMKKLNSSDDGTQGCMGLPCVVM
Sequence of NRAS WT (P62937 whole entry): as the sequence (P62937 whole entry) above
In short: as §1

[6] = target: NRAS Q61R (Homo sapiens (Human), UniProt P01111+P62937, Q61R); experiment: as above; assay type: biochemical
Sequence of NRAS Q61R (P01111 whole entry Q61R): as the sequence (P01111 whole entry) above, with Q61R counted along it
Sequence of NRAS Q61R (P62937 whole entry): as the sequence (P62937 whole entry) above
In short: as §1

[7] = target: KRAS G12D (Homo sapiens (Human), UniProt P01116+P62937, G12D); experiment: as above; assay type: biochemical; details: read-out: KRAS G12D FRET IC50
Sequence of KRAS G12D (P01116 other isoform, or with tags, fused parts or gaps G12D): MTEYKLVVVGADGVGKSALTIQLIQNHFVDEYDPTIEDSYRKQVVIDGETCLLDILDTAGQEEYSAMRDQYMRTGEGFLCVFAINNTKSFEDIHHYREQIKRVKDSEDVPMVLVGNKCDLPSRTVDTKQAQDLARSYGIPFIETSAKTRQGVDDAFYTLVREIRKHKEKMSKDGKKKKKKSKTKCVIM
Sequence of KRAS G12D (P62937 whole entry): as the sequence (P62937 whole entry) above
In short: as §2

[8] = target: NRAS Q61K (Homo sapiens (Human), UniProt P01111+P62937, Q61K); experiment: as above; assay type: biochemical
Sequence of NRAS Q61K (P01111 whole entry Q61K): as the sequence (P01111 whole entry) above, with Q61K counted along it
Sequence of NRAS Q61K (P62937 whole entry): as the sequence (P62937 whole entry) above
In short: as §1

[9] = target: KRAS G12S (Homo sapiens (Human), UniProt P01116+P62937, G12S); experiment: as above; assay type: biochemical; details: read-out: KRAS G12S FRET IC50
Sequence of KRAS G12S (P01116 other isoform, or with tags, fused parts or gaps G12S): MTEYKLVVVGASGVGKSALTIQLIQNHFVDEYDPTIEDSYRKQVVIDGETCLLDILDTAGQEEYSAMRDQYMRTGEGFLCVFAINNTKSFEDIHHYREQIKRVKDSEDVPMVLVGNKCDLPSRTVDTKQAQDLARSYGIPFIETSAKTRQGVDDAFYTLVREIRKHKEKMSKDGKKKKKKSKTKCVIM
Sequence of KRAS G12S (P62937 whole entry): as the sequence (P62937 whole entry) above
In short: as §2

[10] = target: KRAS WT (Homo sapiens (Human), UniProt P01116+P62937); experiment: as above; assay type: biochemical; details: read-out: KRAS WT FRET data IC50
Sequence of KRAS WT (P01116 other isoform, or with tags, fused parts or gaps): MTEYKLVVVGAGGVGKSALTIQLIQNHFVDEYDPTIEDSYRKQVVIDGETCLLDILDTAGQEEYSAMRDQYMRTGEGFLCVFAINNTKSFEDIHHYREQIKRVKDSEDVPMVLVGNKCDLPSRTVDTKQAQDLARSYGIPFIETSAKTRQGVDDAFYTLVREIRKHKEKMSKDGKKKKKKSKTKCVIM
Sequence of KRAS WT (P62937 whole entry): as the sequence (P62937 whole entry) above
In short: as §2

[11] = target: KRAS G12C (Homo sapiens (Human), UniProt P01116+P62937, G12C); experiment: as above; assay type: biochemical; details: read-out: KRAS G12C FRET IC50
Sequence of KRAS G12C (P01116-2 other isoform, or with tags, fused parts or gaps G12C): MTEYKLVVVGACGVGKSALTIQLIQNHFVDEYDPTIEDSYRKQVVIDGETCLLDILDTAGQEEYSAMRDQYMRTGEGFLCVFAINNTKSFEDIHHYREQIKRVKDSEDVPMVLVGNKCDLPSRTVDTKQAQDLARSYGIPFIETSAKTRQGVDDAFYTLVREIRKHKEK
Sequence of KRAS G12C (P62937 whole entry): as the sequence (P62937 whole entry) above
In short: as §2

[12] = target: KRAS G12V (Homo sapiens (Human), UniProt P01116+P62937, G12V); experiment: as above; assay type: biochemical; details: read-out: KRAS G12V FRET IC50
Sequence of KRAS G12V (P01116 other isoform, or with tags, fused parts or gaps G12V): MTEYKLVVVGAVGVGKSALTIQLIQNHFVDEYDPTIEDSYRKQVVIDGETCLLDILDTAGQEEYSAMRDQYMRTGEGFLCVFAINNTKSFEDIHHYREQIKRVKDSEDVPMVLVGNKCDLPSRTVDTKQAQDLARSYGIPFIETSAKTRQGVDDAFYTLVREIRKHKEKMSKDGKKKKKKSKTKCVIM
Sequence of KRAS G12V (P62937 whole entry): as the sequence (P62937 whole entry) above
In short: as §2

[13] = target: K-Ras G12C(GMP-PNP) binding to BRAF RBD (Homo sapiens (Human), UniProt P01116+P62937, G12C); experiment: Disruption of BRAF RBD interaction with K-Ras (FRET / MOA assay), K-Ras G12C; assay type: biochemical; details: read-out: KRAS G12C FRET IC50
Sequence of K-Ras G12C(GMP-PNP) binding to BRAF RBD (P01116 other isoform, or with tags, fused parts or gaps G12C): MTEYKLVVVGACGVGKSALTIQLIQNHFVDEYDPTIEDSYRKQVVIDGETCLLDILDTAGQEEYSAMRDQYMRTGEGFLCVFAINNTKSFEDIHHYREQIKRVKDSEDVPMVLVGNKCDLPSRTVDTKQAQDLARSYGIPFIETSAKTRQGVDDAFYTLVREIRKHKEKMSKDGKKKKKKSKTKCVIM
Sequence of K-Ras G12C(GMP-PNP) binding to BRAF RBD (P62937 whole entry): as the sequence (P62937 whole entry) above
In short: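 Compounds promote ternary complex of nucleotide-loaded Ras (here K-Ras G12C·GMP-PNP; other Ras mutants substituted) with cyclophilin A, disrupting BRAF RBD binding. 10-point 3-fold series from 30 μM final, 3 h at 25 °C, then anti-His Eu (10 nM) and anti-GST APC (50 nM) for 1.5 h. TR-FRET ratio decrease versus DMSO gave IC50.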

[14] = test system: NCI-H358 (K-Ras G12C); experiment: CellTiter-Glo cell viability assay, NCI-H358; assay type: cell-based, human; details: Homo sapiens, NCI-H358, 120 h, 5-day treatment; read-out: H358 Cell Viability assay data (K-Ras G12C, IC50)
In short: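 NCI-H358 cells were treated with test compounds dispensed directly into the assay wells and incubated until day 5. Viability was then read by CellTiter-Glo luminescence after a ~30 min room-temperature equilibration, normalized to the DMSO average (×100), and fit with a four-parameter logistic curve.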

[15] = test system: Capan-1 cells (K-Ras G12V); experiment: CellTiter-Glo cell viability, Capan-1; assay type: cell-based, human; details: Homo sapiens, CAPAN-1, 120 h, K-Ras G12V, 5-day treatment; read-out: Capan-1 Cell Viability IC50
In short: (§3)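 Compounds were dispensed directly onto seeded cells and incubated until day 5, then plates were equilibrated at room temperature for about 30 min before CellTiter-Glo luminescence readout. Signals were normalized as (sample/average DMSO)×100 and fitted with a four-parameter logistic model.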

[16] = test system: NCI-H358 cells (K-Ras G12C); experiment: CellTiter-Glo cell viability, NCI-H358; assay type: cell-based, human; details: Homo sapiens, NCI-H358, 120 h, K-Ras G12C, 5-day treatment; read-out: H358 Cell Viability IC50
In short: as §3

Sequence of NRAS G12C (P01111 whole entry G12C): as the sequence (P01111 whole entry) above, with G12C counted along it
Sequence of NRAS G12C (P62937 whole entry): as the sequence (P62937 whole entry) above

Row | SMILES | IC50 [1] | IC50 [2] [nM] | IC50 [3] [nM] | IC50 [4] | IC50 [5] [nM] | IC50 [6] [nM] | IC50 [7] | IC50 [8] [nM] | IC50 [9] | IC50 [10] | IC50 [11] | IC50 [12] | IC50 [13] [nM] | IC50 [14] [nM] | IC50 [16] [nM] | IC50 [15] [nM]
1 | CCn1c(-c2cccnc2[C@H](C)OC)c2c3cc(ccc31)-c1cc(O)cc(c1)C[C@H](NC(=O)C(C)C1CCOCC1)C(=O)N1CCC[C@H](N1)C(=O)OCC(C)(C)C2 (stereo partly drawn) [Compound A236] | 100 to 1000 nM and 1000 to 10000 nM | 10 to 100 | 100 to 1000 | 100 to 1000 nM and 1000 to 10000 nM | 100 to 1000 | 1000 to 10000 | 1000 to 10000 nM and > 10000 nM | 100 to 1000 | 100 to 1000 nM and 1000 to 10000 nM | 100 to 1000 nM and 1000 to 10000 nM | 100 to 1000 nM and 1000 to 10000 nM | 100 to 1000 nM and 1000 to 10000 nM | > 10000 | > 10000 |  | 
2 | CCn1c(-c2cccnc2[C@H](C)OC)c2c3cc(ccc31)-c1csc(n1)C[C@H](NC(=O)[C@H](C(C)C)N(C)C(=O)N1CCC1C(=O)O)C(=O)N1CCC[C@H](N1)C(=O)OCC(C)(C)C2 (stereo partly drawn) [Compound A271] | 1000 to 10000 nM | 100 to 1000 | 1000 to 10000 | > 10000 nM | 1000 to 10000 | 1000 to 10000 | > 10000 nM | 100 to 1000 | 1000 to 10000 nM | 1000 to 10000 nM | 1000 to 10000 nM | 1000 to 10000 nM | > 10000 | > 10000 |  | > 10000
3 | CCn1c(-c2cccnc2[C@H](C)OC)c2c3cc(ccc31)-c1csc(n1)C[C@H](NC(=O)[C@H](C(C)C)N(C)C(=O)N1CC[C@@]13CCCN(C)C3)C(=O)N1CCC[C@H](N1)C(=O)OCC(C)(C)C2 [Compound A468] | 100 to 1000 nM | 10 to 100 | 100 to 1000 | 100 to 1000 nM | 100 to 1000 | 100 to 1000 | 100 to 1000 nM | 100 to 1000 | 100 to 1000 nM | 100 to 1000 nM | 100 to 1000 nM | 1000 to 10000 nM | 100 to 1000 | 10 to 100 |  | 100 to 1000

Now from value to compound, other results behind:

Row | IC50 [1] | IC50 [2] [nM] | IC50 [3] [nM] | IC50 [4] | IC50 [5] [nM] | IC50 [6] [nM] | IC50 [7] | IC50 [8] [nM] | IC50 [9] | IC50 [10] | IC50 [11] | IC50 [12] | IC50 [13] [nM] | IC50 [14] [nM] | IC50 [16] [nM] | SMILES | IC50 [15] [nM]
4 | 100 to 1000 nM | 100 to 1000 | 100 to 1000 | 100 to 1000 nM | 100 to 1000 | 1000 to 10000 | 100 to 1000 nM | 100 to 1000 | 100 to 1000 nM | 100 to 1000 nM | 100 to 1000 nM | 1000 to 10000 nM | 100 to 1000 | 100 to 1000 |  | CCn1c(-c2cccnc2[C@H](C)OC)c2c3cc(ccc31)-c1csc(n1)C[C@H](NC(=O)[C@H](C(C)C)N(C)C(=O)N(C)C[C@H]1CCN1C)C(=O)N1CCC[C@H](N1)C(=O)OCC(C)(C)C2 [Compound A469] | 100 to 1000
5 | 100 to 1000 nM | 100 to 1000 | 100 to 1000 | 1000 to 10000 nM | 100 to 1000 | 100 to 1000 | 1000 to 10000 nM | 100 to 1000 | 1000 to 10000 nM | 100 to 1000 nM | 100 to 1000 nM | 100 to 1000 nM |  |  | 10 to 100 | CCn1c(-c2cccnc2[C@H](C)OC)c2c3cc(ccc31)-c1csc(n1)C[C@H](NC(=O)[C@H](C(C)C)N(C)C(=O)N1CC(O)(COC)C1)C(=O)N1CCC[C@H](N1)C(=O)OCC(C)(C)C2 [Compound A553] | 100 to 1000
6 | 10 to 100 nM | 10 to 100 | 10 to 100 | 100 to 1000 nM | 10 to 100 | 100 to 1000 | 100 to 1000 nM | 100 to 1000 | 10 to 100 nM | 10 to 100 nM | 10 to 100 nM | 10 to 100 nM |  |  | 100 to 1000 | CCn1c(-c2cccnc2[C@H](C)OC)c2c3cc(ccc31)-c1cc(O)cc(c1)C[C@H](NC(=O)[C@H](C(C)C)N(C)C(=O)[C@H]1C[C@H]1O)C(=O)N1CCC[C@H](N1)C(=O)OCC(C)(C)C2 [Compound A554] | 1000 to 10000
